# Assay results taken from PMC12498190, “A Photocaged N‐Phosphonopiperidinone as a Selective Photo‐Cleavable DPP8/9 Inhibitor” (Chembiochem, 2025).
# Like-named read-outs stand apart in the source and are kept apart here.
# Assay type: physicochemical
# Conditions: 50 µM in 10% acetonitrile/water, green LED 520-530 nm, 30 W
# Procedure: With 5 in our hands, we then started our probe characterization by determining the velocity of the photorelease reaction, i.e., the light‐triggered cleavage of the photocage, thereby delivering again the “active” inhibitor 1. To this end, a 50 µM solution of 5 in 10% acetonitrile in MS‐grade water was irradiated with a green LED lamp (λ = 520‐530 nm, 30 W) for the indicated time periods, and the release of the active inhibitor 1 was quantified via liquid chromatography‐mass spectrometry (LC–MS) analysis (Figure 1A). […] After 3 min, cleavage was quantitative (>99%). Importantly, the only products observed were the desired ‘free’ inhibitor 1 and the cleaved photogroup, indicating a clean activation to 1.
# Figure 1 DPP inhibition by photo‐cleavable inhibitors. A) LC‐MS analysis of the photocleavage reaction of 5 after irradiation with green light. 50 µM of compound 5 was irradiated with a green LED lamp (λ = 520‐530 nm, 30 W) for up to 5 min, and the resulting reaction mixture was analyzed via LC‐MS. […] B) Resulting quantification of the photolysis of 5 based on peak areas depicted in A) (n = 3 technical replicates). […] Enzyme activity was determined by measuring the release of AMC from the substrate GP‐AMC. […]
# Compound 5 was dissolved in DMSO. In order to quantify the effect of irradiation time on photocleavage of the BODIPY moiety, 50 µL aliquots of a 50 µM solution of 5 in 10% acetonitrile (ACN; VWR Chemicals, USA) in MS‐grade water (VWR Chemicals, USA) were irradiated for 0–5 min with a green LED lamp (λ = 520–530 nm, 30 W; Eurolite, Germany) at room temperature (RT) and gentle shaking (final DMSO concentration: 0.5%).
# Quantification of inhibitor release was then determined via LC‐MS on an LTQ XL linear ion trap mass spectrometer (ITMS; Thermo Fisher Scientific, USA) coupled to a DIONEX UltiMate 3000 system (Thermo Fisher Scientific, USA), operated using Xcalibur software 4.4.16.14. […] Quantification was done using Freestyle v1.6. based on the UV spectra (λ = 254 nm) using the Avalon peak detection algorithm. […]
structure (smiles),measurement,setting,value
CCCCCc1ccc(SCCP(=O)(OCC)N2CCC[C@H](NC(=O)OCC3=C4C(C)=CC(C)=[N+]4[B-](C)(C)n4c(C)cc(C)c43)C2=O)cc1 (some centres unmarked) [Compound 5],Photocage cleaved off,after 2 min,95%
same,Photocage cleaved off,after 3 min,> 99%
